Assay results published in patent publication US4186194A (priority 1973, dated 1980).

Assays:
[1] = tested on: guinea pigs; assay: Delayed hypersensitivity with respect to the substances in guinea pigs treated with Freund's complete adjuvant; assay type: in vivo, guinea pig; conditions: 5 and 10 μg in the dermis of guinea pigs, three weeks after ovalbumine with FIA or FCA
Description: Three groups of guinea pigs were injected (in their foot pads) with 1 mg of ovalbumine together with:
(a) Freund's incomplete adjuvant (FIA) and
(b) Freund's complete adjuvent (FCA) respectively.
The delayed hypersensitivity was measured by subcutaneous reaction three weeks thereafter, by injecting 5 mg of ovalbumine and of 5 and 10 μg of either the substance BB and the muramyl-dipeptide in the dermis of the animals.

[2] = tested on: surrenalectomized mice; assay: Toxicity in surrenalectomized mice; assay type: in vivo; conditions: 30 μg dosage
[3] = tested on: Female Hartley guinea-pigs; assay: Delayed hypersensitivity to ovalbumin (cutaneous reaction); assay type: in vivo, guinea-pig; conditions: Table 2, adjuvant dose 25 μg
Description: The delayed hypersensitivity to ovalbumin was measured by cutaneous reaction four weeks after injection; it is expressed by the diameter in millimeters of the erythema (E), of the induration (I) or the necrosis (N), forty-eight hours after sub-cutaneous injection of 10 or 100 μg of ovalbumin.

[4] = tested on: mastocytome; assay: Activation of macrophages in vitro (cytotoxicity with respect to the mastocytome); assay type: cell-based; conditions: incubated directly with normal macrophages and with macrophages from an inflammatory peritoneal exsudate (both cases)
Description: The activity of the muramyl-dipeptide was measured by directly incubating it with both normal macrophages and macrophages originating from an inflammatory peritoneal exsudate.

[5] = tested on: Female Hartley guinea-pigs; assay: Adjuvant activity: rates of antibodies with respect to ovalbumin after injection with incomplete Freund adjuvant and ovalbumin; assay type: in vivo, guinea-pig; conditions: Table 2; dose 25 μg/animal
Description: Female Hartley guinea-pigs of 300-350 g received, in the plantar pad of each of the two rear paws, an emulsion composed of equal parts of incomplete Freund adjuvant and a physiological solution containing ovalbumin (5 mg/guinea-pig) and the preparation to be tested. The incomplete Freund adjuvant (FIA) (that is to say not containing mycobacteria), is the complete adjuvant (FCA) marketed by the DIFCO company were used as controls.
The rates of antibodies with respect to ovalbumin were determined three weeks after injection. The antibody rate is expressed in μg/ml of serum of the antigen-antibody precipitate at the point of equivalents.

[6] = tested on: tumor cells (mastocytome); assay: Antitumor effect of peritoneal macrophages activated in vivo; assay type: cell-based; conditions: macrophages of mice injected intraperitoneally with 30 μg, recovered 4 days later, incubated with tumor cells
Description: The following test takes advantage of the finding made by several authors that macrophages become cytotoxic with respect to neoplasic cells, when they have previously been activated by immuno-adjuvant substances.
Two groups of three mice were injected intraperitoneally with 30 μg of each of the substances respectively. The mice were sacrificed 4 days later. There macrophages were recovered according to the technique of D. Juy, C. Bona and L. Chedid, C. R. Acad. Sc. Paris, 1974, 268, Serie D, 1859 and incubated in the presence of tumor cells (mastocytome).
The inhibition of the mastocytome increase was measured by reference to the reduced incorporation of radioactive thymidine as compared to that of controls.

In the case of `CC(=O)N[C@@H]1[C@@H](O[C@H](C)C(=O)N[C@@H](C)C(=O)N[C@H](CCC(=O)O)C(N)=O)[C@H](O)[C@@H](CO)O[C@H]1O` [N-acetylmuramyl-L-Ala-D-Glu-NH2, 2-(2-acetamido-2-desoxy-3-O-D-glucopyranosyl)-D-propionyl-L-Ala-(γ-OH)-D-α-Glu NH2], the “Delayed hypersensitivity reaction to the substance” value [1] was “dit not induce any detectable reaction”, the Toxicity [2] was “no detectable toxicity” and the “Delayed Hypersensitivity, erythema (E)” value ([3]; 10 μg ovalbumin injection) was 9 millimeters. For the same molecule, the “Delayed Hypersensitivity, erythema (E)” value ([3]; 100 μg ovalbumin injection) was 17 millimeters, the “Increase in vitro of the cytotoxicity of the macrophages with respect to the mastocytome” value [4] was “capable of increasing in vitro the cytotoxicity of the macrophages” and the “Antibody/antiovalbumin, Average” value [5] was 5210 µg/mL. For the same molecule, the “Antibody/antiovalbumin, animal 1” value [5] was 5280 µg/mL, the “Antibody/antiovalbumin, animal 2” value [5] was 6000 µg/mL and the “Antibody/antiovalbumin, animal 3” value [5] was 2960 µg/mL. For the same molecule, the “Antibody/antiovalbumin, animal 4” value [5] was 6880 µg/mL, the “Antibody/antiovalbumin, animal 5” value [5] was 4960 µg/mL and the “Inhibition of the mastocytome increase (reduced incorporation of radioactive thymidine compared to controls)” value [6] was 84%.
